Data: patent US9023789B2, “Amylin analogs and pharmaceutical compositions thereof” (Novo Nordisk A/S, priority 2012, dated 2015)
In brackets after ≈: the same amount, converted by molar mass. Read-outs that look alike come from different tables or passages of the source. Numbered stars: 1 amine (or outer) side, 2 acyl side, 3 side chain; on linkers, the order of the positions; unused ones are H or OH. Bridge positions count the residues as written; N and C are the ends. Side chains are listed from the residue outwards. Peptide text beside a SMILES is read from it. * marks the point of attachment. C20 diacid = O=C(O)CCCCCCCCCCCCCCCCCCC(=O)*; γGlu = O=C(O)[C@H](CCC(=O)[*:2])N[*:1]

Legend:
[1] = molecular target: T1, human amylin receptor (membranes from Amylin 3(a)/CRE-luc cells) (Homo sapiens, UniProt O60896+P30988); assay: ASSAY (V) binding to the human amylin receptor (SPA, 125I-rat amylin); details: for IC50: Table 4, read-out: hAmylin-R bind IC50;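 for all read-outs here: competition binding of cell membranes (35 ng/µL) mixed with SPA beads in 384-well plates at 40 µL total volume, read by scintillation counting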
T1 construct: expressed in transfected cells
T1 sequence (P30988 25-474): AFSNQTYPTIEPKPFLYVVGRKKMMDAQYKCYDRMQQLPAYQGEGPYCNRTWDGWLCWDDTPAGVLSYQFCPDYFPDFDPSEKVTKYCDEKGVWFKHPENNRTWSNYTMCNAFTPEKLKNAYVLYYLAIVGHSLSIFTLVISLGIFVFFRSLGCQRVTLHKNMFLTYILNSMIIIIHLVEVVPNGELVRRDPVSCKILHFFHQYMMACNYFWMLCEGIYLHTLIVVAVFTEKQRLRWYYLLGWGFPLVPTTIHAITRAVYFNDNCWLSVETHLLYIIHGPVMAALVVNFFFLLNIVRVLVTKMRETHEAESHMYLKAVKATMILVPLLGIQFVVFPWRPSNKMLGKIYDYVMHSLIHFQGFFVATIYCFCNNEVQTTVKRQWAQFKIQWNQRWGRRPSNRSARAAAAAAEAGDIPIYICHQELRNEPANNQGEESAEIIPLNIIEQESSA
T1 sequence (O60896 24-148 partner): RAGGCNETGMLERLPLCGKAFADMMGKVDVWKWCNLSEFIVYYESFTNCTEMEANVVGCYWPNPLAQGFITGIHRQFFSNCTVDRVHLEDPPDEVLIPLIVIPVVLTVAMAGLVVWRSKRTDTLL

[2] = ASSAY (IV) determination of solubility; assay type: physicochemical
In short: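 Polypeptide stock in water ([…]) was mixed 1:1 with 100 mM buffers: glycylglycine at pH 3.0, 4.0, 5.0 and bistrispropane at pH 6.0, 6.5, 7.0, 7.5, 8.0. After 18 hours at room temperature, samples were centrifuged and polypeptide concentration measured by UPLC.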

rat calcitonin receptor = molecular target: T2, rat calcitonin receptor (Rattus norvegicus, UniProt P32214); assay: ASSAY (VIII) binding to the rat calcitonin receptor; details: Table 7, read-out: rCTR bind IC50
T2 construct: expressed in transfected cells; host or cells: BHK tk'ts 13 (transient, FuGENE 6), membranes
T2 sequence (P32214 25-479 isoform P32214-2 limits assumed): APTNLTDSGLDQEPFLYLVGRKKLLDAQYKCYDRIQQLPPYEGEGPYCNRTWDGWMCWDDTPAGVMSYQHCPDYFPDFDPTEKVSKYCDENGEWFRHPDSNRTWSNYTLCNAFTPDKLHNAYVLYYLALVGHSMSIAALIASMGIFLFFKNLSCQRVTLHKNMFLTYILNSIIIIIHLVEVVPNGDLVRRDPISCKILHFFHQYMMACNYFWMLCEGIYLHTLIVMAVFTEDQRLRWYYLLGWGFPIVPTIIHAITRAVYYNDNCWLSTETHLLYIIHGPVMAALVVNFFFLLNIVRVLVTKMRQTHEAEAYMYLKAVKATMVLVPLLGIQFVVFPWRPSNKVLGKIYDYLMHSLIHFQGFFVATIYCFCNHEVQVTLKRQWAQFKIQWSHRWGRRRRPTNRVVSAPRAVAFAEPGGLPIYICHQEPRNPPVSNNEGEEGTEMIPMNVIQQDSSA
In short: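 Transfect BHK tk′ts 13 cells transiently with rat calcitonin receptor, culture in DMEM containing 10% FBS, collect cells about 48 hours later, then prepare membranes.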

[3] = molecular target: T3, rat amylin receptor (rat calcitonin receptor + rat RAMP 3) (Rattus norvegicus, UniProt P32214+Q9JJ73); assay: ASSAY (VI) binding to the rat amylin receptor; details: for IC50: binding to rat amylin receptor, read-out: rAmylin-R bind IC50
T3 construct: expressed in transfected cells; host or cells: BHK tk'ts 13 (transient, FuGENE 6), membranes
T3 sequence (P32214 25-479 isoform P32214-2 limits assumed): T2 sequence (P32214 25-479 isoform P32214-2 limits assumed)
T3 sequence (Q9JJ73 23-147 partner): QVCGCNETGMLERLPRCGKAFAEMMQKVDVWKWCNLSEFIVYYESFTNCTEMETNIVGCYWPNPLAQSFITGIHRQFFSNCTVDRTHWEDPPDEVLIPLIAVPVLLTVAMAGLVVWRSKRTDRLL
In short: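 Binding to the rat amylin receptor was determined with membrane preparations. The receptor was expressed by transiently transfecting BHK tk′ts 13 cells with rat calcitonin receptor, using FuGENE® 6 (Roche) according to the manufacturer's recommendations. Roughly 48 hours later the cells were harvested and their membranes isolated.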

[4] = Table 5, selectivity, hCTR bind IC50 / hAmylin-R bind IC50
[5] = Table 5a, selectivity, hCTR bind IC50 / hAmylin-R bind IC50
[6] = Table 5b, selectivity, hCTR bind IC50 / hAmylin-R bind IC50
[7] = Table 7, human binding selectivity, included for comparison
[8] = Table 7a (preferred compounds), human binding selectivity, included for comparison
[9] = ratio of human calcitonin receptor binding IC50 to human amylin receptor binding IC50
[10] = bistrispropane buffer, pH 6.5, read-out: Solubility pH 6.5 Concentration
[11] = bistrispropane buffer, pH 7.5, read-out: Solubility pH 7.5 Concentration
[12] = bistrispropane buffer, pH 6.0, read-out: Solubility pH 6.0 Concentration
[13] = bistrispropane buffer, pH 7.0, read-out: Solubility pH 7.0 Concentration
[14] = bistrispropane buffer, pH 8.0, read-out: Solubility pH 8.0 Concentration
[15] = glycylglycine buffer, pH 3.0, read-out: Solubility pH 3.0 Concentration
[16] = glycylglycine buffer, pH 4.0, read-out: Solubility pH 4.0 Concentration
[17] = glycylglycine buffer, pH 5.0, read-out: Solubility pH 5.0 Concentration
[18] = Table 7, rat binding selectivity, rCTR IC50 / rAmylin-R IC50
[19] = Table 7a (preferred compounds), rat binding selectivity, rCTR IC50 / rAmylin-R IC50
[20] = ratio of rCTR bind IC50 to rAmylin-R bind IC50
[21] = Table 5c, selectivity, hCTR bind IC50 / hAmylin-R bind IC50

SMILES	IC50 [1] [nM]	Ratio hCT/hAmylin binding [1, 4]	Ratio hCT/hAmylin binding [1, 5]	Ratio hCT/hAmylin binding [1, 6]	Ratio hCT/hAmylin binding [1, 7]	Ratio hCT/hAmylin binding [1, 8]	Ratio hCT/hAmylin binding [1, 9]	solubility at 18 h [2, 10] [µM]	solubility at 18 h [2, 11] [µM]	solubility at 18 h [2, 12] [µM]	solubility at 18 h [2, 13] [µM]	solubility at 18 h [2, 14] [µM]	solubility at 18 h [2, 15] [µM]	solubility at 18 h [2, 16] [µM]	solubility at 18 h [2, 17] [µM]	IC50 (rat calcitonin receptor) [nM]	IC50 ([3]; Table 7) [nM]	Ratio rCT/rAmylin binding [3, 18]	Ratio rCT/rAmylin binding [3, 19]	Ratio rCT/rAmylin binding [3, 20]	other results
CC[C@H](C)[C@H](NC(=O)[C@H](C)NC(=O)CNC(=O)[C@H](Cc1ccccc1)NC(=O)[C@H](CC(N)=O)NC(=O)[C@@H]1CCCN1C(=O)[C@H](CO)NC(=O)[C@H](CO)NC(=O)[C@H](Cc1c[nH]cn1)NC(=O)[C@H](CCCNC(=N)N)NC(=O)[C@H](CC(C)C)NC(=O)[C@H](Cc1ccccc1)NC(=O)[C@H](CC(N)=O)NC(=O)[C@H](C)NC(=O)[C@H](CC(C)C)NC(=O)[C@H](CCCNC(=N)N)NC(=O)[C@H](CCC(N)=O)NC(=O)[C@@H](NC(=O)[C@H](C)NC(=O)[C@@H]1CSSC[C@H](NC(=O)[C@H](CCCNC(=N)N)NC(=O)[C@@H](N)CCCCNC(=O)CC[C@H](NC(=O)CCCCCCCCCCCCCCCCCCC(=O)O)C(=O)O)C(=O)N[C@@H](CC(N)=O)C(=O)N[C@@H]([C@@H](C)O)C(=O)N[C@@H](C)C(=O)N[C@@H]([C@@H](C)O)C(=O)N1)[C@@H](C)O)C(=O)N1CCC[C@H]1C(=O)N[C@@H](CO)C(=O)N[C@@H](CO)C(=O)N[C@H](C(=O)N[C@@H](CC(N)=O)C(=O)N[C@H](C(=O)NCC(=O)N[C@@H](CO)C(=O)N[C@@H](Cc1c[nH]cn1)C(=O)N[C@H](C(=O)N[C@@H](Cc1ccc(O)cc1)C(N)=O)[C@@H](C)O)C(C)C)[C@@H](C)O [Example 44] (H-K([γGlu-C20 diacid])RCNTATCATQRLANFLRHSSPNFGAIPSSTNVGSHTY-NH2; disulfide 3-8)	0.275	17.7	17.7	17.7	17.7	17.7	17.7	≥ 200	87 (≈ 397 µg/mL)	≥ 200	≥ 200	39 (≈ 178 µg/mL)	≥ 200	≥ 200	≥ 200	19.7	0.369	53.3	53.3	53.3	
CC[C@H](C)[C@H](NC(=O)[C@H](C)NC(=O)CNC(=O)[C@H](Cc1ccccc1)NC(=O)[C@H](CC(N)=O)NC(=O)[C@@H]1CCCN1C(=O)[C@H](CO)NC(=O)[C@H](CO)NC(=O)[C@H](Cc1c[nH]cn1)NC(=O)[C@H](CCCNC(=N)N)NC(=O)[C@H](CC(C)C)NC(=O)[C@H](Cc1ccccc1)NC(=O)[C@H](CC(N)=O)NC(=O)[C@H](C)NC(=O)[C@H](CC(C)C)NC(=O)[C@H](CCCNC(=N)N)NC(=O)[C@H](CCC(N)=O)NC(=O)[C@@H](NC(=O)[C@H](C)NC(=O)[C@@H]1CSSC[C@H](NC(=O)[C@H](CCCNC(=N)N)NC(=O)CNC(=O)CC[C@H](NC(=O)CCCCCCCCCCCCCCCCCCC(=O)O)C(=O)O)C(=O)N[C@@H](CC(N)=O)C(=O)N[C@@H]([C@@H](C)O)C(=O)N[C@@H](C)C(=O)N[C@@H]([C@@H](C)O)C(=O)N1)[C@@H](C)O)C(=O)N1CCC[C@H]1C(=O)N[C@@H](CO)C(=O)N[C@@H](CO)C(=O)N[C@H](C(=O)N[C@@H](CC(N)=O)C(=O)N[C@H](C(=O)NCC(=O)N[C@@H](CO)C(=O)N[C@@H](CC(N)=O)C(=O)N[C@H](C(=O)N[C@@H](Cc1ccc(O)cc1)C(N)=O)[C@@H](C)O)C(C)C)[C@@H](C)O [Example 46] ({C20 diacid-γGlu}-GRCNTATCATQRLANFLRHSSPNFGAIPSSTNVGSNTY-NH2; disulfide 3-8 (inferred))		48.9	48.9	48.9	48.9	48.9	48.9	≥ 200	106 (≈ 473 µg/mL)	≥ 200	186 (≈ 831 µg/mL)	145 (≈ 648 µg/mL)	≥ 200	≥ 200	≥ 200	46.8	0.33	141.8	141.8	141.8	Ratio hCT/hAmylin binding [1, 21]: 48.9
CC[C@H](C)[C@H](NC(=O)[C@H](C)NC(=O)CNC(=O)[C@H](Cc1ccccc1)NC(=O)[C@H](CC(N)=O)NC(=O)[C@@H]1CCCN1C(=O)[C@H](CO)NC(=O)[C@H](CO)NC(=O)[C@H](Cc1c[nH]cn1)NC(=O)[C@H](CCCNC(=N)N)NC(=O)[C@H](CC(C)C)NC(=O)[C@H](Cc1ccccc1)NC(=O)[C@H](CC(N)=O)NC(=O)[C@H](C)NC(=O)[C@H](CC(C)C)NC(=O)[C@H](CCCNC(=N)N)NC(=O)[C@H](CCC(N)=O)NC(=O)[C@@H](NC(=O)[C@H](C)NC(=O)[C@@H]1CSSC[C@H](NC(=O)[C@@H](N)CCCCNC(=O)CC[C@H](NC(=O)CCCCCCCCCCCCCCCCCCC(=O)O)C(=O)O)C(=O)N[C@@H](CC(N)=O)C(=O)N[C@@H]([C@@H](C)O)C(=O)N[C@@H](C)C(=O)N[C@@H]([C@@H](C)O)C(=O)N1)[C@@H](C)O)C(=O)N1CCC[C@H]1C(=O)N[C@@H](CO)C(=O)N[C@@H](CO)C(=O)N[C@H](C(=O)N[C@@H](CC(N)=O)C(=O)N[C@H](C(=O)NCC(=O)N[C@@H](CO)C(=O)N[C@@H](CC(N)=O)C(=O)N[C@H](C(=O)N[C@@H](Cc1ccc(O)cc1)C(N)=O)[C@@H](C)O)C(C)C)[C@@H](C)O [Example 48]	0.443	69.7	69.7	69.7	69.7	69.7	69.7	≥ 200	≥ 200	≥ 200	≥ 200	≥ 200	≥ 200	≥ 200	≥ 200	112	0.558	201.3	201.3	201.3	Ratio hCT/hAmylin binding [1, 21]: 69.7
